Tested on: MV-4-11 cells
Assay: Gene expression microarray analysis (Affymetrix PrimeView) and GSEA
Type: cell-based, human
Set-up: RFU PODN (11730768_x_at) / Fold change /veh PODN (11730768_x_at) / RFU LINC00158 (11744669_a_at) / Fold change /veh LINC00158 (11744669_a_at) / RFU DUSP10 (11751237_a_at) / Fold change /veh DUSP10 (11751237_a_at) / RFU ID3 (11757404_x_at) / Fold change /veh ID3 (11757404_x_at) / RFU PLEKHG5 (11737974_s_at) / Fold change /veh PLEKHG5 (11737974_s_at) / RFU LRRC4B (11730491_at) / Fold change /veh LRRC4B (11730491_at) / RFU GIMAP4 (11747438_a_at) / Fold change /veh GIMAP4 (11747438_a_at) / RFU KRT8 (11758183_x_at) / Fold change /veh KRT8 (11758183_x_at) / RFU CNN1 (11734310_a_at) / Fold change /veh CNN1 (11734310_a_at) / RFU VPS37D (11726825_at) / Fold change /veh VPS37D (11726825_at) / RFU C10orf10 (11716522_x_at) / Fold change /veh C10orf10 (11716522_x_at) / RFU KIR2DL2 /// KIR2DL4 /// KIR2DL5A /// KIR2DL5B /// KIR2DS1 /// KIR2DS2 /// KIR2DS3 /// KIR2DS4 /// KIR3DL3 /// KIR3DL3 /// KIR3DS1 (11738374_at) / Fold change /veh KIR2DL2 /// KIR2DL4 /// KIR2DL5A /// KIR2DL5B /// KIR2DS1 /// KIR2DS2 /// KIR2DS3 /// KIR2DS4 /// KIR3DL3 /// KIR3DL3 /// KIR3DS1 (11738374_at) / RFU C1QL1 (11718748_at) / Fold change /veh C1QL1 (11718748_at) / RFU TMPRSS4 (11747572_a_at) / Fold change /veh TMPRSS4 (11747572_a_at) / RFU HAMP (11756126_x_at) / Fold change /veh HAMP (11756126_x_at) / RFU RNFT2 (11725882_a_at) / Fold change /veh RNFT2 (11725882_a_at) / RFU NR4A2 (11747474_a_at) / Fold change /veh NR4A2 (11747474_a_at) / RFU ABCC12 (11746883_a_at) / Fold change /veh ABCC12 (11746883_a_at) / RFU TMEM136 (11760407_x_at) / Fold change /veh TMEM136 (11760407_x_at) / RFU CLDN22 /// WWC2 (11732394_at) / Fold change /veh CLDN22 /// WWC2 (11732394_at) / RFU HLA-DPB1 (11760878_x_at) / Fold change /veh HLA-DPB1 (11760878_x_at) / RFU SPINT1 (11716480_a_at) / Fold change /veh SPINT1 (11716480_a_at) / RFU GAP43 (11754022_s_at) / Fold change /veh GAP43 (11754022_s_at) / RFU A4GNT (11735810_at) / Fold change /veh A4GNT (11735810_at) / RFU PRB3 (11715151_x_at) / Fold change /veh PRB3 (11715151_x_at) / RFU TUBB4B (11761932_at) / Fold change /veh TUBB4B (11761932_at) / RFU CAPN14 (11732068_a_at) / Fold change /veh CAPN14 (11732068_a_at) / RFU TMCC2 (11721928_a_at) / Fold change /veh TMCC2 (11721928_a_at) / RFU IRGQ (11745062_a_at) / Fold change /veh IRGQ (11745062_a_at) / RFU FAM174B (11720279_a_at) / Fold change /veh FAM174B (11720279_a_at) / RFU TMPRSS4 (11748680_a_at) / Fold change /veh TMPRSS4 (11748680_a_at) / RFU FAM212B (11763350_a_at) / Fold change /veh FAM212B (11763350_a_at) / RFU PLEKHG5 (11743358_a_at) / Fold change /veh PLEKHG5 (11743358_a_at) / RFU ZSCAN30 (11745921_a_at) / Fold change /veh ZSCAN30 (11745921_a_at) / RFU CMKLR1 (11741424_a_at) / Fold change /veh CMKLR1 (11741424_a_at) / RFU LOC101060620 /// MAPK8IP1 (11723275_at) / Fold change /veh LOC101060620 /// MAPK8IP1 (11723275_at) / RFU SPTSSB (11747773_x_at) / Fold change /veh SPTSSB (11747773_x_at) / RFU PRSS12 (11739890_at) / Fold change /veh PRSS12 (11739890_at) / RFU BIN1 (11741810_x_at) / Fold change /veh BIN1 (11741810_x_at) / RFU WNT11 (11732464_a_at) / Fold change /veh WNT11 (11732464_a_at) / RFU C10orf10 (11716521_a_at) / Fold change /veh C10orf10 (11716521_a_at) / RFU C5orf56 (11738089_at) / Fold change /veh C5orf56 (11738089_at) / RFU CYB561 (11721691_x_at) / Fold change /veh CYB561 (11721691_x_at) / RFU ANKRD19P (11752326_a_at) / Fold change /veh ANKRD19P (11752326_a_at) / RFU OR2T12 /// OR2T33 /// OR2T8 (11738714_s_at) / Fold change /veh OR2T12 /// OR2T33 /// OR2T8 (11738714_s_at) / RFU VCAN (11748164_a_at) / Fold change /veh VCAN (11748164_a_at) / RFU JSRP1 (11732532_at) / Fold change /veh JSRP1 (11732532_at) / RFU KRTAP10-11 (11738290_x_at) / Fold change /veh KRTAP10-11 (11738290_x_at) / RFU MYO3A (11730013_a_at) / Fold change /veh MYO3A (11730013_a_at) / RFU EBF3 (11725865_a_at) / Fold change /veh EBF3 (11725865_a_at) / RFU CAMK2N1 (11719241_x_at) / Fold change /veh CAMK2N1 (11719241_x_at) / RFU C5orf56 (11738088_a_at) / Fold change /veh C5orf56 (11738088_a_at) / RFU OLFML3 (11715873_a_at) / Fold change /veh OLFML3 (11715873_a_at) / RFU LOC100653217 /// NTM (11731650_a_at) / Fold change /veh LOC100653217 /// NTM (11731650_a_at) / RFU MAPK11 (11762145_a_at) / Fold change /veh MAPK11 (11762145_a_at) / RFU FIZ1 (11724087_x_at) / Fold change /veh FIZ1 (11724087_x_at) / RFU OASL (11726364_x_at) / Fold change /veh OASL (11726364_x_at) / RFU SOX15 (11748057_x_at) / Fold change /veh SOX15 (11748057_x_at) / RFU CD79A (11719716_a_at) / Fold change /veh CD79A (11719716_a_at) / RFU HIST1H1D (11736915_at) / Fold change /veh HIST1H1D (11736915_at) / RFU CASKIN2 (11723855_a_at) / Fold change /veh CASKIN2 (11723855_a_at) / RFU LOC730098 (11760151_x_at) / Fold change /veh LOC730098 (11760151_x_at) / RFU OR4N2 (11742367_at) / Fold change /veh OR4N2 (11742367_at) / RFU PRRT2 (11749266_a_at) / Fold change /veh PRRT2 (11749266_a_at) / RFU SNX32 (11753110_a_at) / Fold change /veh SNX32 (11753110_a_at) / RFU CDHR5 (11726645_a_at) / Fold change /veh CDHR5 (11726645_a_at) / RFU RCAN1 (11760418_a_at) / Fold change /veh RCAN1 (11760418_a_at) / RFU FAM167A (11723789_a_at) / Fold change /veh FAM167A (11723789_a_at) / RFU FAM26E (11764081_at) / Fold change /veh FAM26E (11764081_at) / RFU ISYNA1 (11749810_s_at) / Fold change /veh ISYNA1 (11749810_s_at) / RFU ACY1 (11761880_at) / Fold change /veh ACY1 (11761880_at) / RFU 11764098_at / Fold change /veh 11764098_at / RFU SAMD14 (11745864_x_at) / Fold change /veh SAMD14 (11745864_x_at) / RFU NPB (11741838_a_at) / Fold change /veh NPB (11741838_a_at) / RFU TMPRSS6 (11731388_a_at) / Fold change /veh TMPRSS6 (11731388_a_at) / RFU KRTAP10-2 (11738614_at) / Fold change /veh KRTAP10-2 (11738614_at) / RFU ARHGAP8 /// PRR5-ARHGAP8 (11727945_x_at) / Fold change /veh ARHGAP8 /// PRR5-ARHGAP8 (11727945_x_at) / RFU KRTAP5-7 /// NADSYN1 (11734609_at) / Fold change /veh KRTAP5-7 /// NADSYN1 (11734609_at) / RFU RASL12 (11751679_a_at) / Fold change /veh RASL12 (11751679_a_at) / RFU CDKN2B (11736163_a_at) / Fold change /veh CDKN2B (11736163_a_at) / RFU PRF1 (11729649_at) / Fold change /veh PRF1 (11729649_at) / RFU, ZNF638 /// ZNF638-IT1 / Fold change vs veh, ZNF638 /// ZNF638-IT1 / RFU, PANK3 / Fold change vs veh, PANK3 / RFU, SH3YL1 / Fold change vs veh, SH3YL1 / RFU, ZEB2 / Fold change vs veh, ZEB2 / RFU, NRIP1 / Fold change vs veh, NRIP1 / RFU, PTTG1IP / Fold change vs veh, PTTG1IP / RFU, CAPN2 / Fold change vs veh, CAPN2 / RFU, MED14 / Fold change vs veh, MED14 / RFU, SNORA58 / Fold change vs veh, SNORA58 / RFU, C1orf63 / Fold change vs veh, C1orf63 / RFU, LRRFIP1 / Fold change vs veh, LRRFIP1 / RFU, NDUFAF7 / Fold change vs veh, NDUFAF7 / RFU, SLC12A2 / Fold change vs veh, SLC12A2 / RFU, IBTK / Fold change vs veh, IBTK / RFU, ESF1 / Fold change vs veh, ESF1 / Fold change vs veh, TMEM50B / RFU, TAOK1 / Fold change vs veh, TAOK1 / RFU, ACBD3 / Fold change vs veh, ACBD3 / RFU, TMA16 / Fold change vs veh, TMA16 / RFU, RWDD3 / Fold change vs veh, RWDD3 / RFU, BCAT1 / Fold change vs veh, BCAT1 / RFU, EDEM3 / Fold change vs veh, EDEM3 / RFU, TMEM33 / Fold change vs veh, TMEM33 / RFU, WDR75 / Fold change vs veh, WDR75 / RFU, AHCTF1 / Fold change vs veh, AHCTF1 / RFU, TFRC / Fold change vs veh, TFRC / RFU, ZDHHC17 / Fold change vs veh, ZDHHC17 / RFU, NOM1 / Fold change vs veh, NOM1 / RFU, ARL8B / Fold change vs veh, ARL8B / RFU, ZBTB11 / Fold change vs veh, ZBTB11 / RFU, TAMM41 / Fold change vs veh, TAMM41 / RFU, KIAA1704 /// LOC100996395 / Fold change vs veh, KIAA1704 /// LOC100996395 / RFU, ING1 / Fold change vs veh, ING1 / RFU, TRMT61B / Fold change vs veh, TRMT61B / RFU, FUBP3 / Fold change vs veh, FUBP3 / RFU, TP53 / Fold change vs veh, TP53 / RFU, TNKS2 / Fold change vs veh, TNKS2 / RFU, ZFP14 / Fold change vs veh, ZFP14 / RFU, ACTR2 / Fold change vs veh, ACTR2 / RFU, PPP3R1 / Fold change vs veh, PPP3R1 / RFU, PIK3R1 / Fold change vs veh, PIK3R1 / RFU, HNRNPA1 / Fold change vs veh, HNRNPA1 / RFU, RNF170 / Fold change vs veh, RNF170 / RFU, ZNF28 / Fold change vs veh, ZNF28 / RFU, RNGTT / Fold change vs veh, RNGTT / RFU, OGT / Fold change vs veh, OGT / RFU, BRD1 / Fold change vs veh, BRD1 / RFU, MARS / Fold change vs veh, MARS / RFU, ZNF655 / Fold change vs veh, ZNF655 / RFU, FAHD1 / Fold change vs veh, FAHD1 / RFU, BDP1 / Fold change vs veh, BDP1 / RFU, LRRCC1 / Fold change vs veh, LRRCC1 / RFU, ARID1A / Fold change vs veh, ARID1A / RFU, ZNF146 / Fold change vs veh, ZNF146 / RFU, ZNF330 / Fold change vs veh, ZNF330 / RFU, GPN3 / Fold change vs veh, GPN3 / RFU, C9orf123 / Fold change vs veh, C9orf123 / RFU, N4BP2L2 / Fold change vs veh, N4BP2L2 / RFU, ARFIP1 / Fold change vs veh, ARFIP1 / RFU, FAM179B / Fold change vs veh, FAM179B / RFU, BCL10 / Fold change vs veh, BCL10 / RFU, UHRF1BP1L / Fold change vs veh, UHRF1BP1L / RFU, BET1 / Fold change vs veh, BET1 / RFU, CNOT2 / Fold change vs veh, CNOT2 / RFU, ZNF268 / Fold change vs veh, ZNF268 / Fold change vs veh, ZNF507 / RFU, DGCR2 / Fold change vs veh, DGCR2 / RFU, WDSUB1 / Fold change vs veh, WDSUB1 / Fold change vs veh, HSP90B1 /// MIR3652 / RFU, ADSS / Fold change vs veh, ADSS / RFU, GK / Fold change vs veh, GK / RFU, ZNF148 / Fold change vs veh, ZNF148 / RFU, TAF9 / Fold change vs veh, TAF9 / RFU, SLC1A5 / Fold change vs veh, SLC1A5 / RFU, SLMO2 / Fold change vs veh, SLMO2 / RFU, ABCC4 / Fold change vs veh, ABCC4 / RFU, LOC101060439 /// RAP1B / Fold change vs veh, LOC101060439 /// RAP1B / RFU, RFX7 / Fold change vs veh, RFX7 / RFU, GTPBP10 / Fold change vs veh, GTPBP10 / RFU, CNEP1R1 / Fold change vs veh, CNEP1R1 / RFU, BIVM-ERCC5 /// ERCC5 / Fold change vs veh, BIVM-ERCC5 /// ERCC5 / RFU, ILF3 / Fold change vs veh, ILF3 / RFU 11762660_at / Fold change /veh 11762660_at / RFU VCAN (11757783_s_at) / Fold change /veh VCAN (11757783_s_at) / RFU DDX43 (11728927_at) / Fold change /veh DDX43 (11728927_at) / RFU KRT8 (11758188_x_at) / Fold change /veh KRT8 (11758188_x_at) / RFU NKD1 (11759106_at) / Fold change /veh NKD1 (11759106_at) / RFU SRD5A1 (11742802_a_at) / Fold change /veh SRD5A1 (11742802_a_at) / RFU TPSAB1 /// TPSB2 (11721975_s_at) / Fold change /veh TPSAB1 /// TPSB2 (11721975_s_at) / RFU GSTM3 (11746129_a_at) / Fold change /veh GSTM3 (11746129_a_at) / RFU IL23R (11737362_x_at) / Fold change /veh IL23R (11737362_x_at) / RFU TMEM51 (11727254_a_at) / Fold change /veh TMEM51 (11727254_a_at) / RFU PIWIL2 (11732686_x_at) / Fold change /veh PIWIL2 (11732686_x_at) / RFU ORM1 (11744905_x_at) / Fold change /veh ORM1 (11744905_x_at) / RFU CCDC152 (11743942_at) / Fold change /veh CCDC152 (11743942_at) / RFU ECM1 (11717891_a_at) / Fold change /veh ECM1 (11717891_a_at) / RFU IL23R (11748794_a_at) / Fold change /veh IL23R (11748794_a_at) / RFU TNFAIP8L3 (11732012_x_at) / Fold change /veh TNFAIP8L3 (11732012_x_at) / RFU MBOAT4 (11741988_at) / Fold change /veh MBOAT4 (11741988_at) / RFU 11764193_at / Fold change /veh 11764193_at / RFU TMEM53 (11763286_at) / Fold change /veh TMEM53 (11763286_at) / RFU MAGEB2 (11727129_at) / Fold change /veh MAGEB2 (11727129_at) / RFU TMEM200A (11744735_a_at) / Fold change /veh TMEM200A (11744735_a_at) / RFU CCDC152 (11751479_a_at) / Fold change /veh CCDC152 (11751479_a_at) / RFU FAM211A (11726209_a_at) / Fold change /veh FAM211A (11726209_a_at) / RFU RGS16 (11746705_a_at) / Fold change /veh RGS16 (11746705_a_at) / RFU VCAN (11755009_s_at) / Fold change /veh VCAN (11755009_s_at) / RFU RHOB (11743442_s_at) / Fold change /veh RHOB (11743442_s_at) / RFU RGS16 (11720943_a_at) / Fold change /veh RGS16 (11720943_a_at) / RFU RGS16 (11720944_at) / Fold change /veh RGS16 (11720944_at) / RFU, VPS4B / Fold change vs veh, VPS4B / RFU, CREB1 / Fold change vs veh, CREB1 / RFU, DNAJC13 / Fold change vs veh, DNAJC13 / RFU, GNAQ / Fold change vs veh, GNAQ / RFU, CDK5R1 / Fold change vs veh, CDK5R1 / RFU, ZRANB3 / Fold change vs veh, ZRANB3 / RFU, CUL4A / Fold change vs veh, CUL4A / RFU, CCNY / Fold change vs veh, CCNY / RFU, UFL1 / Fold change vs veh, UFL1 / RFU, COG3 / Fold change vs veh, COG3 / RFU, DIAPH2 / Fold change vs veh, DIAPH2 / RFU, SKA2 / Fold change vs veh, SKA2 / RFU, AFF3 / Fold change vs veh, AFF3 / RFU, LMF1 / Fold change vs veh, LMF1 / RFU, IPO11 / Fold change vs veh, IPO11 / RFU, DFFB / Fold change vs veh, DFFB / RFU, FOXP1 / Fold change vs veh, FOXP1 / RFU, CARD8 / Fold change vs veh, CARD8 / RFU, STRN3 / Fold change vs veh, STRN3 / RFU, ADK / Fold change vs veh, ADK / RFU, RASSF2 / Fold change vs veh, RASSF2 / RFU, WIPF1 / Fold change vs veh, WIPF1 / RFU, LARP1B / Fold change vs veh, LARP1B / RFU, RASA1 / Fold change vs veh, RASA1 / RFU, RB1 / Fold change vs veh, RB1 / RFU, PPFIA1 / Fold change vs veh, PPFIA1 / RFU, MAT2A / Fold change vs veh, MAT2A / RFU, CCT5 / Fold change vs veh, CCT5 / RFU, WDR92 / Fold change vs veh, WDR92 / RFU, CUX1 / Fold change vs veh, CUX1 / RFU, TTC7A / Fold change vs veh, TTC7A / RFU, TMEM135 / Fold change vs veh, TMEM135 / RFU, DEPTOR / Fold change vs veh, DEPTOR / RFU, CPM / Fold change vs veh, CPM / RFU, DNAJB6 / Fold change vs veh, DNAJB6 / RFU, CACNA2D3 / Fold change vs veh, CACNA2D3 / RFU, DTX4 / Fold change vs veh, DTX4 / RFU, TFCP2 / Fold change vs veh, TFCP2 / RFU, GMCL1 /// GMCL1P1 / Fold change vs veh, GMCL1 /// GMCL1P1 / RFU, AEBP2 / Fold change vs veh, AEBP2 / RFU, SNHG1 /// SNORD22 /// SNORD25 /// SNORD26 /// SNORD27 /// SNORD28 /// SNORD29 /// SNORD31 / Fold change vs veh, SNHG1 /// SNORD22 /// SNORD25 /// SNORD26 /// SNORD27 /// SNORD28 /// SNORD29 /// SNORD31 / Fold change (Aza/veh), C12orf56 (ProbeSet 11735607_a_at) / Fold change (ACY-1035/veh), C12orf56 (ProbeSet 11735607_a_at) / Fold change (Aza/veh), FGFR1OP (ProbeSet 11751329_s_at) / Fold change (ACY-1035/veh), FGFR1OP (ProbeSet 11751329_s_at) / Fold change (Aza/veh), VPS36 (ProbeSet 11739960_a_at) / Fold change (ACY-1035/veh), VPS36 (ProbeSet 11739960_a_at) / RFU SYPL1 (11715823_x_at) / Fold change /veh SYPL1 (11715823_x_at) / RFU IGFBP7 (11715501_s_at) / Fold change /veh IGFBP7 (11715501_s_at) / RFU REEP3 (11722064_at) / Fold change /veh REEP3 (11722064_at) / RFU IGLL1 (11728026_x_at) / Fold change /veh IGLL1 (11728026_x_at): dose or concentration left out as unconfirmed
Settings: ProbeSet 11717914_a_at; LIST B

With Nc1ccc(-c2cccs2)cc1NC(=O)c1ccc2c(c1)cc(C1CC1)n2CCN1CCOCC1 [ACY-1035] the “RFU, BIVM-ERCC5 /// ERCC5” value was 177.23 RFU.

— article PMC5218480 (PLoS ONE, 2017)
